The values below come from PubChem BioAssay (NCI).

Molecules are shown by their SMILES.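 Method: 48-hour compound exposure of cells in 96-well plates, five concentrations, linear interpolation of endpoints. At the GI50, growth is halved. TGI denotes the concentration required for complete inhibition of growth.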

Assay in all cases: NCI tumour cell line growth inhibition, 48 h
The subject of experiment [1] is MDA-MB-468 breast.
Experiment [2] deals with A549 NSCLC.
Experiment [3] has as its system PC-3 prostate.
The subject of experiment [4] is SF-539 CNS.
The subject of experiment [5] is SK-OV-3 ovarian.
In experiment [6] the test system is A498 renal.
For experiment [7], the system named is RPMI-8226 leukemia.
The subject of experiment [8] is HL-60(TB) leukemia.
In experiment [9] the test system is DU-145 prostate.
The test system of experiment [10] is IGROV1 ovarian.
In experiment [11] the test system is SF-268 CNS.
The test system of experiment [12] is CCRF-CEM leukemia.
In experiment [13] the test system is BT-549 breast.
The subject of experiment [14] is SK-MEL-2 melanoma.
The test system of experiment [15] is SN12C renal.
Experiment [16] has as its system KM12 colon.
The subject of experiment [17] is SK-MEL-5 melanoma.
In experiment [18] the test system is MDA-MB-231 breast.
In experiment [19] the test system is HOP-92 NSCLC.
Experiment [20] has as its system OVCAR-4 ovarian.
The subject of experiment [21] is MDA-MB-435.
Experiment [22] deals with HCC-2998 colon.
In experiment [23] the test system is OVCAR-5 ovarian.
Experiment [24] has as its system UACC-257 melanoma.
Experiment [25] relates to M14 melanoma.
In experiment [26] the test system is NCI-H522 lung.
Experiment [27] relates to NCI/ADR-RES ovarian.
Experiment [28] deals with TK-10 renal.
Experiment [29] concerns SR leukemia.
The test system of experiment [30] is HS 578T breast.
Experiment [31] deals with T-47D breast.
Experiment [32] concerns UACC-62 melanoma.
For experiment [33], the system named is SK-MEL-28 melanoma.
Experiment [34] has as its system EKVX NSCLC.
Experiment [35] deals with MALME-3M melanoma.
The subject of experiment [36] is 786-0 renal.
Experiment [37] has as its system RXF 393 renal.
Experiment [38] deals with SNB-19 CNS.
Experiment [39] concerns CAKI-1 renal.
For experiment [40], the system named is UO-31 renal.
The test system of experiment [41] is OVCAR-8 ovarian.
For experiment [42], the system named is SNB-75 CNS.
Experiment [43] has as its system K-562 leukemia.
Experiment [44] concerns HT29 colon.
For experiment [45], the system named is NCI-H226 lung.

Consider `Cc1cc(N)c2ccccc2[n+]1CCCCCCCCCC[n+]1c(C)cc(N)c2ccccc21`, for which, in [1], the GI50 is 0.0647 µM and the TGI was 0.245 µM.
On the same counts, the results for `C#Cc1cccc(Nc2ncnc3ccc(-c4cncc(NS(C)(=O)=O)c4)cc23)c1` are 0.208 µM and 0.731 µM.
On the same counts, the results for `CCCCCCN(CCCCCC)CC(O)c1cccc2ccc(Cl)cc12` (centres undefined) are 3.19 µM and 14.6 µM.
On the same counts, the results for `C[C@H](NC(=O)CCC(F)(F)F)C(=O)N[C@@H]1C(=O)N(CCO)c2ncccc2-c2ccccc21` are greater than 100 µM and greater than 100 µM.
With `Cn1cc(-c2cc(N)n3nc(-c4c[nH]c5ccccc45)cc3n2)c2cc(Br)ccc21`, the GI50 in experiment [2] was 1.91 µM; in experiment [3], 2.09 µM; in experiment [4], 1.75 µM; in [5] it was 6.31 µM; in experiment [6], 2.06 µM; in [7], 2.98 µM. Also, the GI50 in experiment [8] is 2.86 µM; in [9], 3.33 µM; in [10], 1.99 µM; in experiment [11] it was 2.13 µM; in experiment [12] it was 2.24 µM; in experiment [13] it was 14.1 µM. The GI50 in experiment [14] was 1.88 µM; in experiment [15] it was 1.91 µM; in experiment [16] it was 1.94 µM; in [17] it was 1.92 µM; in experiment [18], 1.91 µM; in experiment [19] it was 2.25 µM. For the same compound, the GI50 in experiment [20] is 3.06 µM; in experiment [21] it was 2.07 µM; in [22], 1.78 µM; in [23] it was 1.91 µM; in experiment [24], 1.95 µM; in experiment [25], 1.79 µM. The GI50 in [26] was 1.65 µM; in experiment [27] it was 2.22 µM; in experiment [28], 2.08 µM; in experiment [1] it was 1.56 µM; in experiment [29] it was 5.95 µM; in experiment [30], 2.56 µM. Moreover, the GI50 was 1.97 µM in experiment [31]; 1.65 µM in experiment [32]; 1.85 µM in experiment [33]; 1.83 µM in [34]; 1.87 µM in experiment [35]; 1.88 µM in experiment [36]. In addition, the GI50 in experiment [37] was 1.85 µM; in experiment [38], 2.02 µM; in [39], 1.58 µM; in experiment [40], 1.71 µM; in experiment [41], 2.84 µM; in [42], 2.05 µM. Moreover, the GI50 in [43] is 3.44 µM; in [44] it was 1.77 µM; in experiment [45], 4.76 µM. Besides, the TGI in experiment [2] was 5.18 µM; in [3], 5.36 µM; in experiment [4], 3.22 µM; in [5], greater than 100 µM; in [6], 7.26 µM; in [7] it was 9.57 µM. For the same compound, the TGI in experiment [8] stood at 9.81 µM; in experiment [9], 12.3 µM; in experiment [10], 4.52 µM; in experiment [11] it was 5.87 µM; in experiment [12], 6.75 µM; in [13], 44.6 µM. For the same compound, the TGI in [14] was determined as 4.27 µM; in [15], 3.87 µM; in experiment [16], 4.09 µM; in [17], 3.82 µM; in experiment [18], 3.5 µM; in experiment [19], 5.54 µM. Moreover, the TGI in experiment [20] was found to be 11.2 µM; in experiment [21], 4.65 µM; in experiment [22], 3.39 µM; in experiment [23], 3.93 µM; in [24], 4.31 µM; in experiment [25] it was 4.09 µM. Also, the TGI in experiment [26] is 3.34 µM; in experiment [27], 5.09 µM; in [28] it was 5.53 µM; in [1] it was 3.04 µM; in [29], greater than 100 µM; in experiment [30], 9.25 µM. The TGI in experiment [31] was 4.72 µM; in experiment [32], 3.28 µM; in [33] it was 3.52 µM; in experiment [34], 4.37 µM; in [35], 3.31 µM; in [36], 4.1 µM. The TGI in experiment [37] is 4.65 µM; in experiment [38], 4.39 µM; in experiment [39] it was 3.16 µM; in experiment [40] it was 3.53 µM; in experiment [41] it was 8.51 µM; in [42], 9.74 µM. The TGI in experiment [43] was greater than 100 µM; in experiment [44], 3.62 µM; in experiment [45] it was 42.9 µM.
On to `COc1ccc(S(=O)(=O)NCCNc2nccc(-c3c(-c4ccccc4)nc4sccn34)n2)cc1`, for which, in experiment [1], the GI50 is 3.03 µM and the TGI was greater than 100 µM.
On the same counts, the results for `O=c1c2cc(F)ccc2sc2c(NCCCN3CCCC3)nc3ccccc3c12` are 1.17 µM and 2.67 µM.
Taken in the same sequence, the figures for `CCCCCCN1C(=O)CN=C1Nc1ccc2cc3ccc(NC4=NCC(=O)N4CCCCCC)cc3nc2c1` were 1.64 µM and 3.4 µM.
As for `CC(=O)Nc1ccc(-n2cnc3cc(-c4ccc(OCCN5CCCCC5)cc4)ccc32)cc1`, in [1], the GI50 is 5.64 µM and the TGI is 14.1 µM.
On the same counts, the results for `O=[N+]([O-])c1cccc(-c2ncc(-c3ccc(Cl)cc3Cl)[nH]2)c1` are 1.63 µM and 3.54 µM.
As for `CC(C)C[C@H](NC(=O)[C@@H](O)[C@H](N)Cc1ccccc1)C(=O)O`, in [1], the GI50 was 53.4 µM and the TGI is greater than 100 µM.
Taken in the same sequence, the figures for `CCCCCCCCCCCCNC(=O)[C@H]1CSC(c2ccc(OC)c(F)c2)N1` (some centres undefined) were 1.28 µM and 2.82 µM.
Regarding `CCNC(=O)Oc1ccc(/C(=C(\C)c2ccc(Cl)cc2)c2ccc(OCCN3CCCCC3)cc2)cc1`, in experiment [1], the GI50 was 2.66 µM and the TGI was determined as 9.5 µM.
`COc1cc(OC)cc(N2CCN(C(=O)Nc3nc4cc(F)ccc4nc3OC)CC2)c1`: in experiment [1], the GI50 was 0.0283 µM and the TGI amounted to 65.1 µM.
Turning to `O=c1[nH]c(-c2ccccn2)nc2sc3c(c12)CCCCCC3`, in experiment [1], the GI50 is 1.66 µM and the TGI was greater than 100 µM.
In the case of `COc1ccc(-n2nc(C)c3c2N(C)C2(C)C[C@@H]4C3(C)[C@@H]3CC4(C2)N(C)c2c(c(C)nn2-c2ccc(OC)cc2)[C@H]3C)cc1` (some centres undefined), in [1], the GI50 is 4.76 µM and the TGI was found to be 64.8 µM.
On the same counts, the results for `CC(=O)N[C@@H]1CCC[C@H](C(=O)Nc2cc(-c3cnn4c3CC(C)(C)C4)c(Cl)cn2)C1` are less than 0.01 µM and 0.049 µM.
On the same counts, the results for `CC(C)(C)c1cc(C(=O)Nc2cc3ccccc3cc2C(=O)NCCN)cc(C(C)(C)C)c1` are 0.347 µM and 0.989 µM.
